Assay results as given in patent publication US11377441B2, “Covalent inhibitors of KRAS” (Araxes Pharma LLC, priority 2017, dated 2022).

Molecular target: T1, KRAS G12C 1-169, his-tagged protein, GDP-loaded (Homo sapiens, UniProt P01116, G12C)
T1 construct: KRAS G12C 1-169, his-tagged protein, GDP-loaded
Assay: Biochemical assay: covalent modification of KRAS G12C measured by mass spectrometry (RapidFire/TOF or Q-Exactive)
Type: binding
Conditions: covalent binding to (modification of) KRAS G12C after a ten minute incubation period
Summary of the method: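 Intact-mass readout (TOF or Q-Exactive, charge-envelope deconvolution) gives percent covalent adduct from modified and unmodified species. Compound at 10, 30 or 100 μM was incubated at room temperature for 10 min to 24 h with 2 μM or 0.5 μM GDP-bound KRAS G12C 1-169 in Hepes/NaCl/MgCl2 buffer, then acid-quenched.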

Question: How did the Binding % turn out when `C=CC(=O)N1C[C@H](C)N(c2nc(N3CC(N(C)C)C3)nc3c(F)c(-c4cncc5[nH]ncc45)c(Cl)cc23)C[C@H]1C` [Compound 77, 1-((2R,5S)-4-(6-chloro-2-(3-(dimethylamino)azetidin-1-yl)-8-fluoro-7-(1H-pyrazolo[3,4-c]pyridin-4-yl)quinazolin-4-yl)-2,5-dimethylpiperazin-1-yl)prop-2-en-1-one] was run?
Answer: The Binding % was “+ (+ indicates binding activity greater than 0% and up to 50%)”.

Question: How did the Binding % turn out when `C=CC(=O)N1C[C@H](C)N(c2nc(OCCN(CC)CC)nc3c(F)c(-c4c(C)ccc5[nH]nc(N)c45)c(Cl)cc23)C[C@H]1C` [Compound 78, 1-((2R,5S)-4-(7-(3-amino-5-methyl-1H-indazol-4-yl)-6-chloro-2-(2-(diethylamino)ethoxy)-8-fluoroquinazolin-4-yl)-2,5-dimethylpiperazin-1-yl)prop-2-en-1-one] was run?
Answer: The Binding % was “+++ (+++ indicates binding activity greater than 80%)”.

Question: How did the Binding % turn out when `C=CC(=O)N1C[C@H](C)N(c2nc(NCCN3CCOCC3)nc3c(F)c(-c4c(C)ccc5[nH]nc(N)c45)c(Cl)cc23)C[C@H]1C` [Compound 79, 1-((2R,5S)-4-(7-(3-amino-5-methyl-1H-indazol-4-yl)-6-chloro-8-fluoro-2-(2-morpholinoethylamino)quinazolin-4-yl)-2,5-dimethylpiperazin-1-yl)prop-2-en-1-one] was run?
Answer: The Binding % was “+++ (+++ indicates binding activity greater than 80%)”.

Question: Which Binding % does the source give for `C=CC(=O)N1C[C@H](C)N(c2nc(NC3CCN(C4CC4)CC3)nc3c(F)c(-c4c(C)ccc5[nH]nc(N)c45)c(Cl)cc23)C[C@H]1C` [Compound 80, 1-((2R,5S)-4-(7-(3-amino-5-methyl-1H-indazol-4-yl)-6-chloro-2-(1-cyclopropylpiperidin-4-ylamino)-8-fluoroquinazolin-4-yl)-2,5-dimethylpiperazin-1-yl)prop-2-en-1-one] here?
Answer: The Binding % was “+++ (+++ indicates binding activity greater than 80%)”.

Question: With `C=CC(=O)N1C[C@H](C)N(c2nc(OCCN3CCOCC3)nc3c(F)c(-c4c(C)ccc5onc(N)c45)c(Cl)cc23)C[C@H]1C` [Compound 81, 1-((2R,5S)-4-(7-(3-amino-5-methylbenzo[d]isoxazol-4-yl)-6-chloro-8-fluoro-2-(2-morpholinoethoxy)quina-zolin-4-yl)-2,5-dimethylpiperazin-1-yl)prop-2-en-1-one] as the compound, how does the Binding % read?
Answer: Its Binding % is “++ (++ indicates binding activity from 50 to 80%)”.

Question: `C=CC(=O)N1C[C@H](C)N(c2nc(N3CC(N(C)C)C3)nc3c(F)c(-c4c(C)ccc5[nH]c(=O)[nH]c45)c(Cl)cc23)C[C@H]1C` [Compound 82, 4-(4-((2S,5R)-4-acryloyl-2,5-dimethylpiperazin-1-yl)-6-chloro-2-(3-(dimethylamino)azetidin-1-yl)-8-fluoroquinazolin-7-yl)-5-methyl-1H-benzo[d]imidazol-2(3H)-one] was tested. Which Binding % did it give?
Answer: The Binding % was “+++ (+++ indicates binding activity greater than 80%)”.

Question: For `C=CC(=O)N1C[C@H](C)N(c2nc(OCCN3CCC(F)(F)C3)nc3c(F)c(-c4c(C)ccc5onc(N)c45)c(Cl)cc23)C[C@H]1C` [Compound 85, 1-((2R,5S)-4-(7-(3-amino-5-methylbenzo[d]isoxazol-4-yl)-6-chloro-2-(2-(3,3-difluoropyrrolidin-1-yl)ethoxy)-8-fluoroquinazolin-4-yl)-2,5-dimethylpiperazin-1-yl)prop-2-en-1-one], which Binding % is on record?
Answer: Its Binding % is “+++ (+++ indicates binding activity greater than 80%)”.

Question: With `C=CC(=O)N1C[C@H](C)N(c2nc(N3CC(N(C)C)C3)nc3c(F)c(-c4c(C)ccc5nn[nH]c45)c(Cl)cc23)C[C@H]1C` [Compound 86, 1-((2R,5S)-4-(6-chloro-2-(3-(dimethylamino)azetidin-1-yl)-8-fluoro-7-(6-methyl-1H-benzo[d][1,2,3]triazol-7-yl)quinazolin-4-yl)-2,5-dimethylpiperazin-1-yl)prop-2-en-1-one] as the compound, how does the Binding % read?
Answer: Its Binding % is “+ (+ indicates binding activity greater than 0% and up to 50%)”.

Question: For `C=CC(=O)N1C[C@H](C)N(c2nc(NCCc3ncccn3)nc3c(F)c(-c4c(C)ccc5onc(N)c45)c(Cl)cc23)C[C@H]1C` [Compound 91, 1-((2R,5S)-4-(7-(3-amino-5-methylbenzo[d]isoxazol-4-yl)-6-chloro-8-fluoro-2-(2-(pyrimidin-2-yl)ethylamino)quinazo-lin-4-yl)-2,5-dimethylpiperazin-1-yl)prop-2-en-1-one], which Binding % is on record?
Answer: The Binding % was “+++ (+++ indicates binding activity greater than 80%)”.

Question: With `C=CC(=O)N1C[C@H](C)N(c2nc(NCCN3CCOCC3)nc3c(F)c(-c4c(C)ccc5onc(N)c45)c(Cl)cc23)C[C@H]1C` [Compound 92, 1-((2R,5S)-4-(7-(3-amino-5-methylbenzo[d]isoxazol-4-yl)-6-chloro-8-fluoro-2-(2-morpholinoethylamino)quinazolin-4-yl)-2,5-dimethylpiperazin-1-yl)prop-2-en-1-one] as the compound, how does the Binding % read?
Answer: Its Binding % is “++ (++ indicates binding activity from 50 to 80%)”.

Question: Which Binding % does the source give for `C=CC(=O)N1C[C@H](C)N(c2nc(NCCC(=O)N3CCCC3)nc3c(F)c(-c4c(C)ccc5onc(N)c45)c(Cl)cc23)C[C@H]1C` [Compound 93, 1-((2R,5S)-4-(7-(3-amino-5-methylbenzo[d]isoxazol-4-yl)-6-chloro-8-fluoro-2-(3-oxo-3-(pyrrolidin-1-yl)propylamino)quinazo-lin-4-yl)-2,5-dimethylpiperazin-1-yl)prop-2-en-1-one] here?
Answer: The Binding % was “++ (++ indicates binding activity from 50 to 80%)”.

Question: How did the Binding % turn out when `C=CC(=O)N1C[C@H](C)N(c2nc(N3CC(N(C)C)C3)nc3c(F)c(-c4c(C)ccc5[nH]nnc45)c(Cl)cc23)C[C@H]1C` [Compound 94, 1-((2R,5S)-4-(6-chloro-2-(3-(dimethylamino)azetidin-1-yl)-8-fluoro-7-(5-methyl-1H-benzo[d][1,2,3]triazol-4-yl)quinazolin-4-yl)-2,5-dimethylpiperazin-1-yl)prop-2-en-1-one] was run?
Answer: Its Binding % is “++ (++ indicates binding activity from 50 to 80%)”.

Question: For `C=CC(=O)N1C[C@H](C)N(c2nc(N3CC(N(C)C)C3)nc3c(F)c(-c4c(C)ccc5onc(N)c45)c(Cl)cc23)C[C@H]1C` [Compound 95, 1-((2R,5S)-4-((R)-7-(3-amino-5-methylbenzo[d]isoxazol-4-yl)-6-chloro-2-(3-(dimethylamino)azetidin-1-yl)-8-fluoroquinazolin-4-yl)-2,5-dimethylpiperazin-1-yl)prop-2-en-1-one], which Binding % is on record?
Answer: The Binding % was “+++ (+++ indicates binding activity greater than 80%)”.

Question: With `C=CC(=O)N1C[C@H](C)N(c2nc(N3CC(N(C)C)C3)nc3c(F)c(-c4c(C)ccc5onc(Cl)c45)c(Cl)cc23)C[C@H]1C` [Compound 99, 1-((2R,5S)-4-(6-chloro-7-(3-chloro-5-methylbenzo[d]isoxazol-4-yl)-2-(3-(dimethylamino)azetidin-1-yl)-8-fluoroquinazolin-4-yl)-2,5-dimethylpiperazin-1-yl)prop-2-en-1-one] as the compound, how does the Binding % read?
Answer: Its Binding % is “+ (+ indicates binding activity greater than 0% and up to 50%)”.

Question: Which Binding % does the source give for `C=CC(=O)N1C[C@H](C)N(c2nc(OCCN3CC[C@@H](OC)C3)nc3c(F)c(-c4c(C)ccc5[nH]nc(N)c45)c(Cl)cc23)C[C@H]1C` [Compound 100, 1-((2R,5S)-4-(7-(3-amino-5-methyl-1H-indazol-4-yl)-6-chloro-8-fluoro-2-(2-((R)-3-methoxypyrrolidin-1-yl)ethoxy)quinazolin-4-yl)-2,5-dimethylpiperazin-1-yl)prop-2-en-1-one] here?
Answer: The Binding % was “+++ (+++ indicates binding activity greater than 80%)”.

Question: How did the Binding % turn out when `C=CC(=O)N1C[C@H](C)N(c2nc(N3CC([N+](C)(C)C)C3)nc3c(F)c(-c4c(C)ccc5cnn(C)c45)c(Cl)cc23)C[C@H]1C` [Compound 106, 1-((R)-4-((2S,5R)-4-acryloyl-2,5-dimethylpiperazin-1-yl)-6-chloro-7-(1,6-dimethyl-1H-indazol-7-yl)-8-fluoroquinazolin-2-yl)-N,N,N-trimethylazetidin-3-aminium] was run?
Answer: Its Binding % is “+++ (+++ indicates binding activity greater than 80%)”.

Question: Which Binding % does the source give for `C=CC(=O)N1C[C@H](C)N(c2nc(N3CC(N(C)C)C3)nc3c(F)c(-c4c(C)ccc5[nH]nc(C)c45)c(Cl)cc23)C[C@H]1C` [Compound 107, 1-((2R,5S)-4-(6-chloro-7-(3,5-dimethyl-1H-indazol-4-yl)-2-(3-(dimethylamino)azetidin-1-yl)-8-fluoroquinazolin-4-yl)-2,5-dimethylpiperazin-1-yl)prop-2-en-1-one] here?
Answer: The Binding % was “+ (+ indicates binding activity greater than 0% and up to 50%)”.

Question: How did the Binding % turn out when `C=CC(=O)N1C[C@H](C)N(c2nc(OCCN3CC[C@@H](F)C3)nc3c(F)c(-c4c(C)ccc5[nH]nc(N)c45)c(Cl)cc23)C[C@H]1C` [Compound 108, 1-((2R,5S)-4-(7-(3-amino-5-methyl-1H-indazol-4-yl)-6-chloro-8-fluoro-2-(2-((R)-3-fluoropyrrolidin-1-yl)ethoxy)quinazolin-4-yl)-2,5-dimethylpiperazin-1-yl)prop-2-en-1-one] was run?
Answer: Its Binding % is “+++ (+++ indicates binding activity greater than 80%)”.

Question: `C=CC(=O)N1C[C@H](C)N(c2nc(OCCN3CC[C@H](F)C3)nc3c(F)c(-c4c(C)ccc5[nH]nc(N)c45)c(Cl)cc23)C[C@H]1C` [Compound 109, 1-((2R,5S)-4-(7-(3-amino-5-methyl-1H-indazol-4-yl)-6-chloro-8-fluoro-2-(2-((S)-3-fluoropyrrolidin-1-yl)ethoxy)quinazolin-4-yl)-2,5-dimethylpiperazin-1-yl)prop-2-en-1-one] was tested. Which Binding % did it give?
Answer: The Binding % was “+++ (+++ indicates binding activity greater than 80%)”.

Question: How did the Binding % turn out when `C=CC(=O)N1C[C@H](C)N(c2nc(OCCN3CCCC(F)(F)C3)nc3c(F)c(-c4c(C)ccc5[nH]nc(N)c45)c(Cl)cc23)C[C@H]1C` [Compound 114, 1-((2R,5S)-4-(7-(3-amino-5-methyl-1H-indazol-4-yl)-6-chloro-2-(2-(3,3-difluoropiperidin-1-yl)ethoxy)-8-fluoroquinazolin-4-yl)-2,5-dimethylpiperazin-1-yl)prop-2-en-1-one] was run?
Answer: The Binding % was “+++ (+++ indicates binding activity greater than 80%)”.
